Source: publication PMC11240139, “Exploring the antitumor potential of novel quinoline derivatives via tubulin polymerization inhibition in breast cancer; design, synthesis and molecular docking” (RSC Advances, 2024)

Legend:
Type in all cases: cell-based
[1] = system: MDA-MB-435 (melanoma); assay: NCI-60 SRB cytotoxicity screen
[2] = system: A498 (renal cancer); assay: NCI-60 SRB cytotoxicity screen
[3] = system: HOP-92 (non-small cell lung cancer); assay: NCI-60 SRB cytotoxicity screen
[4] = system: RPMI-8226 (leukemia); assay: NCI-60 SRB cytotoxicity screen
[5] = system: HOP-62 (non-small cell lung cancer); assay: NCI-60 SRB cytotoxicity screen
[6] = system: SF-295 (CNS cancer); assay: NCI-60 SRB cytotoxicity screen
[7] = system: KM12 (colon cancer); assay: NCI-60 SRB cytotoxicity screen
[8] = system: HS 578T (breast cancer); assay: NCI-60 SRB cytotoxicity screen
[9] = system: IGROV1 (ovarian cancer); assay: NCI-60 SRB cytotoxicity screen
[10] = system: LOX IMVI (melanoma); assay: NCI-60 SRB cytotoxicity screen
[11] = system: SR (leukemia); assay: NCI-60 SRB cytotoxicity screen
[12] = system: MDA-MB-231/ATCC (breast cancer); assay: NCI-60 SRB cytotoxicity screen
[13] = system: DU-145 (prostate cancer); assay: NCI-60 SRB cytotoxicity screen
[14] = system: OVCAR-8 (ovarian cancer); assay: NCI-60 SRB cytotoxicity screen
[15] = system: MDA-MB-468 (breast cancer); assay: NCI-60 SRB cytotoxicity screen
Procedure, shortened: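 NCI-60 single-dose (10^−5 M) screen in MDA-MB-468 with SRB protein-stain read-out after 48 h exposure; cells TCA-fixed and absorbance read at 540 nm. Reported as GI%, with compounds meeting NCI activity criteria then run at five doses (0.01–100 μM).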

[16] = system: M14 (melanoma); assay: NCI-60 SRB cytotoxicity screen
[17] = system: CCRF-CEM (leukemia); assay: NCI-60 SRB cytotoxicity screen
[18] = system: T-47D (breast cancer); assay: NCI-60 SRB cytotoxicity screen
[19] = system: NCI-H226 (non-small cell lung cancer); assay: NCI-60 SRB cytotoxicity screen
[20] = system: UACC-257 (melanoma); assay: NCI-60 SRB cytotoxicity screen
[21] = system: NCI-H460 (non-small cell lung cancer); assay: NCI-60 SRB cytotoxicity screen
[22] = system: UO-31 (renal cancer); assay: NCI-60 SRB cytotoxicity screen
[23] = system: HT29 (colon cancer); assay: NCI-60 SRB cytotoxicity screen
[24] = system: SN12C (renal cancer); assay: NCI-60 SRB cytotoxicity screen
[25] = system: SK-MEL-5 (melanoma); assay: NCI-60 SRB cytotoxicity screen
[26] = system: OVCAR-4 (ovarian cancer); assay: NCI-60 SRB cytotoxicity screen
[27] = system: MDA-MB-231 cells; assay: Cell cycle analysis by flow cytometry (PI); settings: MDA-MB-231, IC50 dose, 24 h; control 10.42%
Procedure: Propidium Iodide Flow Cytometry Kit for Cell Cycle Analysis (Abcam) was used according to manufacturer's instructions. Briefly, MDA-MB 231 cells (2 × 10^5 cells) were seeded in 6-well plates and cultured for 24 h. […] Cells were collected, washed with PBS and centrifuged. Subsequently, the cells were re-suspended and fixed in 66% ethanol on ice for at least 2 h. The cells were stained with a working solution containing propidium iodide (PI) in the dark at 37 °C for 30 min. DNA content of the cells were measured by flow cytometry using FACSCalibur (BD Biosciences, Mountain View, CA). The data were analyzed using the CellQuest software (BD Biosciences).[21]

[28] = Homo sapiens, A498, five-dose assay
[29] = Homo sapiens, HOP-92, five-dose assay
[30] = Homo sapiens, HOP-62, five-dose assay
[31] = Homo sapiens, SF-295, five-dose assay
[32] = Homo sapiens, single dose 10 μM, read-out: growth inhibition (GI%)
[33] = Homo sapiens, MDA-MB-468, five-dose assay
[34] = Homo sapiens, M14, five-dose assay
[35] = Homo sapiens, NCI-H226, five-dose assay
[36] = Homo sapiens, UACC-257, five-dose assay
[37] = Homo sapiens, NCI-H460, five-dose assay
[38] = Homo sapiens, UO-31, five-dose assay
[39] = Homo sapiens, SK-MEL-5, five-dose assay

## CCc1cccc2cc(-c3cc(-c4cc(OC)c(OC)c(OC)c4)[nH]c(=O)c3C#N)c(Cl)nc12 [Compound 4c, 4-(2-Chloro-8-ethylquinolin-3-yl)-2-oxo-6-(3,4,5-trimethoxyphenyl)-1,2-dihydropyridine-3-carbonitrile]
[1]; Homo sapiens, MDA-MB-435
  GI50: 32.6 µM
[1]; Homo sapiens, MDA-MB-435, read-out: growth inhibition (GI%)
  inhibition at 10 µM: 56.5%
[1]; Homo sapiens, MDA-MB-435, five-dose assay
  LC50 (lethal concentration, 50% net cell kill): > 100 µM
[1]; MDA-MB-435, five-dose assay
  TGI: >100 µM
[2]; A498, five-dose assay
  TGI: 45.20 µM
[2]; A498, single dose 10 μM
  growth inhibition (GI%): lethal effect
[2]; [28]
  GI50: 15.8 µM
  LC50 (concentration killing 50% of cells): > 100 µM
[2]; Homo sapiens, A498, single dose 10 μM, read-out: growth inhibition (GI%)
  inhibition at 10 µM: > 100%
[3]; HOP-92, five-dose assay
  TGI: 9.68 µM
[3]; HOP-92, single dose 10 μM
  growth inhibition (GI%): lethal effect
[3]; [29]
  GI50: 2.37 µM
  LC50 (lethal concentration 50): > 100 µM
[3]; Homo sapiens, HOP-92, single dose 10 μM, read-out: growth inhibition (GI%)
  inhibition at 10 µM: > 100%
[4]; Homo sapiens, RPMI-8226, five-dose assay
  GI50: 5.16 µM
[4]; Homo sapiens, RPMI-8226, five-dose assay, read-out: LC50 (the source's name)
  CC50: > 100 µM
[4]; Homo sapiens, RPMI-8226, single dose 10 μM, read-out: growth inhibition (GI%)
  inhibition at 10 µM: 74.5%
[4]; RPMI-8226, five-dose assay
  TGI: >100 µM
[5]; HOP-62, five-dose assay
  TGI: 78.90 µM
[5]; [30]
  GI50: 20.7 µM
  LC50: > 100 µM
[5]; Homo sapiens, HOP-62, single dose 10 μM, read-out: growth inhibition (GI%)
  inhibition at 10 µM: 87.9%
[6]; [31]
  GI50: 19.4 µM
  LC50: > 100 µM
[6]; Homo sapiens, SF-295, single dose 10 μM, read-out: growth inhibition (GI%)
  inhibition at 10 µM: 96.4%
[6]; SF-295, five-dose assay
  TGI: >100 µM
[7]; Homo sapiens, KM12, five-dose assay
  GI50: 33.6 µM
[7]; Homo sapiens, KM12, five-dose assay, read-out: LC50 (the source's name)
  CC50: > 100 µM
[7]; Homo sapiens, KM12, single dose 10 μM, read-out: growth inhibition (GI%)
  inhibition at 10 µM: 55.1%
[7]; KM12, five-dose assay
  TGI: >100 µM
[8]; Homo sapiens, five-dose assay
  GI50: 2.38 µM
  LC50 (50% lethal concentration): > 100 µM
[8]; [32]
  inhibition at 10 µM: > 100%
[8]; five-dose assay
  TGI: 7.26 µM
[8]; single dose 10 μM
  growth inhibition (GI%): lethal effect
[9]; Homo sapiens, IGROV-1, IGROV1, five-dose assay
  GI50: 12.2 µM
[9]; Homo sapiens, IGROV-1, IGROV1, five-dose assay, read-out: LC50 (the source's name)
  CC50: > 100 µM
[9]; Homo sapiens, IGROV-1, IGROV1, single dose 10 μM, read-out: growth inhibition (GI%)
  inhibition at 10 µM: 66.3%
[9]; IGROV1, five-dose assay
  TGI: 46.30 µM
[10]; Homo sapiens, five-dose assay
  GI50: 13.5 µM
[10]; Homo sapiens, five-dose assay, read-out: LC50 (the source's name)
  CC50: 81.3 µM
[10]; [32]
  inhibition at 10 µM: 91.6%
[10]; five-dose assay
  TGI: 33.20 µM
[11]; five-dose assay
  GI50: 5.7 µM
  LC50: > 100 µM
  TGI: >100 µM
[11]; single dose 10 μM, read-out: growth inhibition (GI%)
  inhibition at 10 µM: 77.3%
[12]; Homo sapiens, MDA-MB-231
  GI50: 14.5 µM
[12]; Homo sapiens, MDA-MB-231, read-out: growth inhibition (GI%)
  inhibition at 10 µM: > 100%
[12]; Homo sapiens, MDA-MB-231/ATCC, five-dose assay, read-out: LC50 (the source's name)
  CC50: 69.8 µM
[12]; MDA-MB-231/ATCC, five-dose assay
  TGI: 31.80 µM
[12]; MDA-MB-231/ATCC, single dose 10 μM
  growth inhibition (GI%): lethal effect
[13]; DU-145, five-dose assay
  TGI: 38.00 µM
[13]; Homo sapiens, DU-145, five-dose assay
  GI50: 15.5 µM
[13]; Homo sapiens, DU-145, five-dose assay, read-out: LC50 (the source's name)
  CC50: 93.5 µM
[13]; Homo sapiens, DU-145, single dose 10 μM, read-out: growth inhibition (GI%)
  inhibition at 10 µM: 80.5%
[14]; Homo sapiens, OVCAR-8, five-dose assay
  GI50: 18.5 µM
[14]; Homo sapiens, OVCAR-8, five-dose assay, read-out: LC50 (the source's name)
  CC50: > 100 µM
[14]; Homo sapiens, OVCAR-8, single dose 10 μM, read-out: growth inhibition (GI%)
  inhibition at 10 µM: 92.1%
[14]; OVCAR-8, five-dose assay
  TGI: 93.60 µM
[15]; [33]
  GI50: 12.7 µM
  LC50 (concentration killing 50% of cells): > 100 µM
[15]; Homo sapiens, MDA-MB-468, single dose 10 μM, read-out: growth inhibition (GI%)
  inhibition at 10 µM: 51.9%
[15]; MDA-MB-468, five-dose assay
  TGI: 61.60 µM
[16]; [34]
  GI50: 29.7 µM
  LC50: > 100 µM
[16]; Homo sapiens, M14, single dose 10 μM, read-out: growth inhibition (GI%)
  inhibition at 10 µM: 42.8%
[16]; M14, five-dose assay
  TGI: >100 µM
[17]; Homo sapiens, five-dose assay
  GI50: 12 µM
  LC50: > 100 µM
[17]; [32]
  inhibition at 10 µM: 80.4%
[17]; five-dose assay
  TGI: >100 µM
[18]; Homo sapiens, T47D, five-dose assay
  GI50: 12.2 µM
[18]; Homo sapiens, T47D, five-dose assay, read-out: LC50 (the source's name)
  CC50: > 100 µM
[18]; Homo sapiens, T47D, single dose 10 μM, read-out: growth inhibition (GI%)
  inhibition at 10 µM: 91.6%
[18]; five-dose assay
  TGI: 64.10 µM
[19]; [35]
  GI50: 10.9 µM
  LC50 (lethal concentration, 50% cell kill): 97.7 µM
[19]; Homo sapiens, NCI-H226, single dose 10 μM, read-out: growth inhibition (GI%)
  inhibition at 10 µM: > 100%
[19]; NCI-H226, five-dose assay
  TGI: 32.60 µM
[19]; NCI-H226, single dose 10 μM
  growth inhibition (GI%): lethal effect
[20]; [36]
  GI50: 42.6 µM
  LC50: > 100 µM
[20]; Homo sapiens, UACC-257, single dose 10 μM, read-out: growth inhibition (GI%)
  inhibition at 10 µM: 26.5%
[20]; UACC-257, five-dose assay
  TGI: >100 µM
[21]; [37]
  GI50: 16.1 µM
  LC50 (50% lethal concentration): > 100 µM
[21]; Homo sapiens, NCI-H460, single dose 10 μM, read-out: growth inhibition (GI%)
  inhibition at 10 µM: 58.6%
[21]; NCI-H460, five-dose assay
  TGI: 41.80 µM
[22]; [38]
  GI50: 12.6 µM
  LC50 (50% lethal concentration): > 100 µM
[22]; Homo sapiens, UO-31, single dose 10 μM, read-out: growth inhibition (GI%)
  inhibition at 10 µM: > 100%
[22]; UO-31, five-dose assay
  TGI: >100 µM
[22]; UO-31, single dose 10 μM
  growth inhibition (GI%): lethal effect
[23]; HT29, five-dose assay
  TGI: >100 µM
[23]; Homo sapiens, HT-29, HT29, five-dose assay
  GI50: 32.1 µM
[23]; Homo sapiens, HT-29, HT29, five-dose assay, read-out: LC50 (the source's name)
  CC50: > 100 µM
[23]; Homo sapiens, HT-29, HT29, single dose 10 μM, read-out: growth inhibition (GI%)
  inhibition at 10 µM: < 10%
[24]; Homo sapiens, five-dose assay
  GI50: 10.3 µM
  LC50 (concentration killing 50% of cells): 61.8 µM
[24]; [32]
  inhibition at 10 µM: > 100%
[24]; five-dose assay
  TGI: 25.20 µM
[24]; single dose 10 μM
  growth inhibition (GI%): lethal effect
[25]; [39]
  GI50: 17.5 µM
  LC50: > 100 µM
[25]; Homo sapiens, SK-MEL-5, single dose 10 μM, read-out: growth inhibition (GI%)
  inhibition at 10 µM: 78.6%
[25]; SK-MEL-5, five-dose assay
  TGI: 90.20 µM
[26]; Homo sapiens, OVCAR-4, five-dose assay
  GI50: 17.2 µM
[26]; Homo sapiens, OVCAR-4, five-dose assay, read-out: LC50 (the source's name)
  CC50: > 100 µM
[26]; Homo sapiens, OVCAR-4, single dose 10 μM, read-out: growth inhibition (GI%)
  inhibition at 10 µM: > 100%
[26]; OVCAR-4, five-dose assay
  TGI: >100 µM
[26]; OVCAR-4, single dose 10 μM
  growth inhibition (GI%): lethal effect
[27]
  cells population at G2 and M phases: 22.84%
